Experimental data taken from patent US11485742B2, “2-azaspiro[3.4]octane derivatives as M4 agonists” (NOVARTIS AG, priority 2019, dated 2022).
pEC50: −log10 of the molar value.

Assays:
[1] = target: T1, human cloned CHRM3 receptor (Homo sapiens, UniProt P20309); assay: CHRM3 Ca++ Flux Assay (M3_CHO cells, agonist mode); assay type: cell-based; settings: for Emax: Percent Activity (PA) measured to EC100 of Carbachol, read-out: M3 FDSS PA %; for pEC50: agonist mode, geometric mean if tested more than once, read-out: M3 FDSS EC50
T1 construct: expressed in transfected cells; host or cells: CHO-K1 (M3_CHO)
T1 sequence (P20309 whole entry): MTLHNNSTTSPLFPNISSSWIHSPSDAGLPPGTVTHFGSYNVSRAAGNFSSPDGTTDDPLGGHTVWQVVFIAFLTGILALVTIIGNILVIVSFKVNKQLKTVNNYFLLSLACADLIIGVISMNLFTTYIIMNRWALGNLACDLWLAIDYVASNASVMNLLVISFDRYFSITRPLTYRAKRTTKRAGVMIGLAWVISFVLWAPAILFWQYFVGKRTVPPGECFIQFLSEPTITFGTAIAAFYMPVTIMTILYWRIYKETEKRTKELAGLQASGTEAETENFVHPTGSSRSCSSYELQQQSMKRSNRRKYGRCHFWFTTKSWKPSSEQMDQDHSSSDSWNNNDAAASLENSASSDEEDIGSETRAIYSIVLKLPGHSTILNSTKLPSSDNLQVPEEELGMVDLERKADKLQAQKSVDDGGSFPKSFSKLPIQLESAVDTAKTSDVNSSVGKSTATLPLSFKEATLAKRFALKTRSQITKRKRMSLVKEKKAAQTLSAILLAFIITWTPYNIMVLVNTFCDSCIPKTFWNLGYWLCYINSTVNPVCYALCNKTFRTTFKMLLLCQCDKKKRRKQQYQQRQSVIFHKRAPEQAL
How it was run: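 Agonist-mode calcium mobilisation: compounds, 11 concentrations in triplicate, applied to stable M3_CHO or M5_CHO cells loaded with Ca++ dye, fluorescence followed 3 min. Efficacy expressed against carbachol EC100; EC curves by four-parameter nonlinear regression, geometric mean across independent runs.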

[2] = target: T2, human cloned CHRM4 receptor (Homo sapiens, UniProt P08173); assay: CHRM4 Ca++ Flux Assay (M4_CHO cells, agonist mode); assay type: cell-based; settings: for Emax: Percent Activity (PA), read-out: M4 FDSS PA %; for pEC50: geometric mean if tested more than once, read-out: M4 FDSS EC50
T2 construct: expressed in transfected cells; host or cells: CHO-K1 (M4_CHO)
T2 sequence (P08173 1-479): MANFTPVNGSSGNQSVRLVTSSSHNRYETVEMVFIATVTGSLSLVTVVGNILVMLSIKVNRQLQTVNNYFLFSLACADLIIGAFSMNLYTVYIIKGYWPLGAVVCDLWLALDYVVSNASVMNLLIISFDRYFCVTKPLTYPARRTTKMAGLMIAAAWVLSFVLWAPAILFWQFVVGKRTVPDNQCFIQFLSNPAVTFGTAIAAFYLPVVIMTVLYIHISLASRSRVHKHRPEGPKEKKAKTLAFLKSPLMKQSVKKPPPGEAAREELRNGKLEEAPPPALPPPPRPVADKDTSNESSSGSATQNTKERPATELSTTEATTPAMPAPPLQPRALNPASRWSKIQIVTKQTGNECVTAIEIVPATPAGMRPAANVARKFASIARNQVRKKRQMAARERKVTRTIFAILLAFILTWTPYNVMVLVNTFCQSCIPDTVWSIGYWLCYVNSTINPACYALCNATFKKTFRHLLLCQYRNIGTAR
How it was run: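 Agonist-mode calcium flux in an M4-expressing CHO-K1 line: compounds were dosed at 11 points in triplicate and fluorescence was tracked for 3 min. Cells were preloaded with Ca++ dye and kept in −Ca/−Mg HBSS with 20 μM ATP for 60 min. Efficacy is scaled to carbachol EC100; EC50s come from four-parameter regression, geometric mean across runs.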

SMILES	Emax [1] [%]	pEC50 [1]	Emax [2] [%]	pEC50 [2]
c1ccc(C2CCN([C@@H]3COC4(C3)CN(c3nnco3)C4)CC2)c(O[C@@H]2CCOC2)c1 [Example 1O, (S)-2-(1,3,4-oxadiazol-2-yl)-7-(4-(2-(((R)-tetrahydrofuran-3-yl)oxy)phenyl)piperidin-1-yl)-5-oxa-2-azaspiro[3.4]octane]	0	< 4.60	89	7.59
Fc1cc(O[C@@H]2CCOC2)c(C2CCN([C@@H]3COC4(C3)CN(c3nnco3)C4)CC2)cc1F [Example 1R, (S)-7-(4-(4,5-difluoro-2-(((R)-tetrahydrofuran-3-yl)oxy)phenyl)piperidin-1-yl)-2-(1,3,4-oxadiazol-2-yl)-5-oxa-2-azaspiro[3.4]octane]	0	< 4.60	77	7.39
Fc1ccc(OCc2ncccn2)c(C2CCN([C@@H]3COC4(C3)CN(c3nnco3)C4)CC2)c1 [Example 2I, (S)-7-(4-(5-fluoro-2-(pyrimidin-2-ylmethoxy)phenyl)piperidin-1-yl)-2-(1,3,4-oxadiazol-2-yl)-5-oxa-2-azaspiro[3.4]octane]	0	< 4.60	77	7.92
Cc1cc(COc2ccc(F)cc2C2CCN([C@@H]3COC4(C3)CN(c3nnco3)C4)CC2)on1 [Example 2G, (S)-7-(4-(5-fluoro-2-((3-methylisoxazol-5-yl)methoxy)phenyl)piperidin-1-yl)-2-(1,3,4-oxadiazol-2-yl)-5-oxa-2-azaspiro[3.4]octane]	0	< 4.60	86	8.52
CCC1(COc2ccc(F)cc2C2CCN([C@@H]3COC4(C3)CN(c3nnco3)C4)CC2)COC1 [Example 2P, (S)-7-(4-(2-((3-ethyloxetan-3-yl)methoxy)-5-fluorophenyl)piperidin-1-yl)-2-(1,3,4-oxadiazol-2-yl)-5-oxa-2-azaspiro[3.4]octane]	0	< 4.60	75	7.07
Fc1ccc(OC2COC2)c(C2CCN([C@@H]3COC4(C3)CN(c3nnco3)C4)CC2)c1 [Example 1A, (S)-7-(4-(5-fluoro-2-(oxetan-3-yloxy)phenyl)piperidin-1-yl)-2-(1,3,4-oxadiazol-2-yl)-5-oxa-2-azaspiro[3.4]octane]	0	< 4.60	82	8.10
COc1ccccc1C1CCN([C@@H]2COC3(C2)CN(c2nnco2)C3)CC1 [Example 1Q, (S)-7-(4-(2-methoxyphenyl)piperidin-1-yl)-2-(1,3,4-oxadiazol-2-yl)-5-oxa-2-azaspiro[3.4]octane]	0	< 4.60	79	7.28
CC(C)(O)COc1ccccc1C1CCN([C@@H]2COC3(C2)CN(c2ncns2)C3)CC1 [Example 5Y, (S)-1-(2-(1-(2-(1,2,4-thiadiazol-5-yl)-5-oxa-2-azaspiro[3.4]octan-7-yl)piperidin-4-yl)phenoxy)-2-methylpropan-2-ol]	0	< 4.60	64	6.96
Cc1nnc(COc2ccc(F)cc2C2CCN([C@@H]3COC4(C3)CN(c3nnco3)C4)CC2)o1 [Example 2F, (S)-7-(4-(5-fluoro-2-((5-methyl-1,3,4-oxadiazol-2-yl)methoxy)phenyl)piperidin-1-yl)-2-(1,3,4-oxadiazol-2-yl)-5-oxa-2-azaspiro[3.4]octane]	0	< 4.60	90	9.00
CC(C)(O)CCOc1cc(F)ccc1C1CCN([C@@H]2COC3(C2)CN(c2nncs2)C3)CC1 [Example 5V, (S)-4-(2-(1-(2-(1,3,4-thiadiazol-2-yl)-5-oxa-2-azaspiro[3.4]octan-7-yl)piperidin-4-yl)-5-fluorophenoxy)-2-methylbutan-2-ol]	0	< 4.60	40	6.60
Fc1ccc(OC[C@H]2CCOC2)c(C2CCN([C@@H]3COC4(C3)CN(c3nnco3)C4)CC2)c1 [Example 1I, (S)-7-(4-(5-fluoro-2-(((S)-tetrahydrofuran-3-yl)methoxy)phenyl)piperidin-1-yl)-2-(1,3,4-oxadiazol-2-yl)-5-oxa-2-azaspiro[3.4]octane]	0	< 4.60	69	7.46
CC(C)(O)CCOc1cc(F)ccc1C1CCN([C@@H]2COC3(C2)CN(c2nnco2)C3)CC1 [Example 1T, (S)-4-(2-(1-(2-(1,3,4-oxadiazol-2-yl)-5-oxa-2-azaspiro[3.4]octan-7-yl)piperidin-4-yl)-5-fluorophenoxy)-2-methylbutan-2-ol]	0	< 4.60	45	6.80
Fc1ccc(OC2CC3(COC3)C2)c(C2CCN([C@@H]3COC4(C3)CN(c3nncs3)C4)CC2)c1 [Example 5W, (S)-7-(4-(2-((2-oxaspiro[3.3]heptan-6-yl)oxy)-5-fluorophenyl)piperidin-1-yl)-2-(1,3,4-thiadiazol-2-yl)-5-oxa-2-azaspiro[3.4]octane]	0	< 4.60	85	6.98
OC1(COc2ccc(F)cc2C2CCN([C@@H]3COC4(C3)CN(c3nnco3)C4)CC2)COC1 [Example 2U, (S)-3-((2-(1-(2-(1,3,4-oxadiazol-2-yl)-5-oxa-2-azaspiro[3.4]octan-7-yl)piperidin-4-yl)-4-fluorophenoxy)methyl)oxetan-3-ol]	0	< 4.60	86	7.92
CC1(COc2ccc(F)cc2C2CCN([C@@H]3COC4(C3)CN(c3nncs3)C4)CC2)COC1 [Example 2B, (S)-7-(4-(5-fluoro-2-((3-methyloxetan-3-yl)methoxy)phenyl)piperidin-1-yl)-2-(1,3,4-thiadiazol-2-yl)-5-oxa-2-azaspiro[3.4]octane]	0	< 4.60	71	7.60
COC(C)(C)CCOc1ccc(F)cc1C1CCN([C@@H]2COC3(C2)CN(c2nnco2)C3)CC1 [Example 1K, (S)-7-(4-(5-fluoro-2-(3-methoxy-3-methylbutoxy)phenyl)piperidin-1-yl)-2-(1,3,4-oxadiazol-2-yl)-5-oxa-2-azaspiro[3.4]octane]	0	< 4.60	58	7.01
c1ccc(C2CCN([C@@H]3COC4(C3)CN(c3nnco3)C4)CC2)c(-c2cncnc2)c1 [Example 1W, (S)-2-(1,3,4-oxadiazol-2-yl)-7-(4-(2-(pyrimidin-5-yl)phenyl)piperidin-1-yl)-5-oxa-2-azaspiro[3.4]octane]	0	< 4.60	89	7.92
Fc1ccc(OC2COC2)c(C2CCN([C@@H]3COC4(C3)CN(c3ncon3)C4)CC2)c1 [Example 6B, (S)-7-(4-(5-fluoro-2-(oxetan-3-yloxy)phenyl)piperidin-1-yl)-2-(1,2,4-oxadiazol-3-yl)-5-oxa-2-azaspiro[3.4]octane]	0	< 4.60	79	8.10
Fc1ccc(OC[C@H]2CCOC2)c(C2CCN([C@@H]3COC4(C3)CN(c3nncs3)C4)CC2)c1 [Example 5X, (S)-7-(4-(5-fluoro-2-(((S)-tetrahydrofuran-3-yl)methoxy)phenyl)piperidin-1-yl)-2-(1,3,4-thiadiazol-2-yl)-5-oxa-2-azaspiro[3.4]octane]	0	< 4.60	71	7.24
c1ccc(C2CCN([C@@H]3COC4(C3)CN(c3nnco3)C4)CC2)c(OC2COC2)c1 [Example 1P, (S)-2-(1,3,4-oxadiazol-2-yl)-7-(4-(2-(oxetan-3-yloxy)phenyl)piperidin-1-yl)-5-oxa-2-azaspiro[3.4]octane]	0	< 4.60	94	7.55
CCc1nnc(COc2ccc(F)cc2C2CCN([C@@H]3COC4(C3)CN(c3nnco3)C4)CC2)s1 [Example 2T, (S)-7-(4-(2-((5-ethyl-1,3,4-thiadiazol-2-yl)methoxy)-5-fluorophenyl)piperidin-1-yl)-2-(1,3,4-oxadiazol-2-yl)-5-oxa-2-azaspiro[3.4]octane]	0	< 4.60	89	8.70
CC(C)(O)COc1ccc(F)cc1C1CCN([C@@H]2COC3(C2)CN(c2nnco2)C3)CC1 [Example 1U, (S)-1-(2-(1-(2-(1,3,4-oxadiazol-2-yl)-5-oxa-2-azaspiro[3.4]octan-7-yl)piperidin-4-yl)-4-fluorophenoxy)-2-methylpropan-2-ol]	0	< 4.60	73	7.05
